Measured values from ChEMBL document CHEMBL1154504, “Discovery and development of heat shock protein 90 inhibitors” (Bioorg Med Chem, 2009).
Values after ≈ are worked out from the molar mass of the structure shown.

Legend:
[1] = target: T1, Heat shock protein HSP 90-beta (Homo sapiens, UniProt P08238); assay: Binding affinity to Hsp90 by fluorescence polarization assay
[2] = target: T1, Heat shock protein HSP 90-beta; assay: Inhibition of Hsp90
[3] = system: HCT-116; assay: Antitumor activity in human HCT116 cells xenografted mouse assessed as inhibition of tumor growth at 100 mg/kg, ip; type: functional; details: HCT-116, ip, route intraperitoneal, read-out: GI
[4] = target: T1, Heat shock protein HSP 90-beta; assay: Binding affinity to Hsp90 in human SKBR3 cells; type: cell-based, SK-BR-3
[5] = Inhibition of Rous sarcoma virus v-Src
[6] = target: T1, Heat shock protein HSP 90-beta; assay: Inhibition of Hsp90 in human SKBR3 cells assessed as Her2 degradation; type: cell-based, SK-BR-3
[7] = system: MCF7; assay: Antitumor activity in human MCF7 cells xenografted mouse assessed as reduction of tumor burden at 200 mg/kg, ip administered alternative days; type: functional; set-up: scale not given: the % may be the effect or the level left; details: route intraperitoneal
[8] = cells; details: Homo sapiens, NCI60, read-out: GI
Description: Growth inhibition of human NCI60 cells at 13 nM

[9] = system: HCT-116; assay: cells; details: Homo sapiens
Description: Antiproliferative against human HCT116 cells

[10] = target: ATP-dependent molecular chaperone HSP82 (Saccharomyces cerevisiae S288c, UniProt P02829); assay: Binding affinity to yeast Hsp90 ATPase activity
[11] = system: HCT-116; assay: Antitumor activity in human HCT116 cells xenografted mouse assessed as inhibition of tumor growth at 50 mg/kg, ip; type: functional; details: HCT-116, ip, route intraperitoneal, read-out: GI
[12] = system: NCI-N87; assay: Antitumor activity in human NCI-N87 cells xenografted mouse assessed as inhibition of tumor growth at 125 mg/kg, po administered daily once for 5 days per week measured after 5 weeks; type: functional; details: read-out: GI
[13] = system: NCI-N87; assay: Antitumor activity in human NCI-N87 cells xenografted mouse assessed as inhibition of tumor growth at 60 mg/kg, po administered daily once for 5 days per week measured after 5 weeks; type: functional; details: read-out: GI
[14] = target: T1, Heat shock protein HSP 90-beta; assay: Inhibition of Hsp90 assessed as Her2 degradation by cell based assay
[15] = system: MCF7; assay: Cytotoxicity against human MCF7 cells; type: functional, cell-based
[16] = target: Receptor tyrosine-protein kinase erbB-2 (Homo sapiens, UniProt P04626); assay: Inhibition of Her2 in human SKBR3 cells; type: cell-based, SK-BR-3
[17] = Solubility in water; type: physicochemical
[18] = target: T1, Heat shock protein HSP 90-beta; assay: Inhibition of Hsp90 in human MCF7 cells assessed as Her2 degradation; type: cell-based
[19] = system: NCI-N87; assay: Antitumor activity in human NCI-N87 cells xenografted mouse assessed as inhibition of tumor growth at 200 mg/kg, po administered daily once for 5 days per week measured after 30 days; type: functional; details: read-out: GI

T1 sequence (P08238 whole entry): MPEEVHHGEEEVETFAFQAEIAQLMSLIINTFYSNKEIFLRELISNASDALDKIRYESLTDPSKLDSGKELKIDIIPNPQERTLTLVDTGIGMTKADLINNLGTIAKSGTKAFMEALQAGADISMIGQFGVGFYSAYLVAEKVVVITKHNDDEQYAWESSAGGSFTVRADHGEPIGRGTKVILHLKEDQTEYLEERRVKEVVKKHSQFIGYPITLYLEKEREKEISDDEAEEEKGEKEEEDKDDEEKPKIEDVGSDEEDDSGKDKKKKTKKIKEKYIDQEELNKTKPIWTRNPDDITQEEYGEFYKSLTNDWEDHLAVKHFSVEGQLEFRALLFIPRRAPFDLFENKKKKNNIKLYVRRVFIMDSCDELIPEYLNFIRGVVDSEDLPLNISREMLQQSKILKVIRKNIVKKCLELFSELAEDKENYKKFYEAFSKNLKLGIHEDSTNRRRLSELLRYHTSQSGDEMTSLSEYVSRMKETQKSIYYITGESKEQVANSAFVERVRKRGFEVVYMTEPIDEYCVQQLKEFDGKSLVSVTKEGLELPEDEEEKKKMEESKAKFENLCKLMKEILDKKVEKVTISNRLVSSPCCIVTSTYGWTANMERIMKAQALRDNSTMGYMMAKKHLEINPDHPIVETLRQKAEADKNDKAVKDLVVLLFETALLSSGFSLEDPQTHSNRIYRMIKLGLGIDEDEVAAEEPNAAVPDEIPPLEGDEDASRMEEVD
ATP-dependent molecular chaperone HSP82, sequence (P02829 whole entry): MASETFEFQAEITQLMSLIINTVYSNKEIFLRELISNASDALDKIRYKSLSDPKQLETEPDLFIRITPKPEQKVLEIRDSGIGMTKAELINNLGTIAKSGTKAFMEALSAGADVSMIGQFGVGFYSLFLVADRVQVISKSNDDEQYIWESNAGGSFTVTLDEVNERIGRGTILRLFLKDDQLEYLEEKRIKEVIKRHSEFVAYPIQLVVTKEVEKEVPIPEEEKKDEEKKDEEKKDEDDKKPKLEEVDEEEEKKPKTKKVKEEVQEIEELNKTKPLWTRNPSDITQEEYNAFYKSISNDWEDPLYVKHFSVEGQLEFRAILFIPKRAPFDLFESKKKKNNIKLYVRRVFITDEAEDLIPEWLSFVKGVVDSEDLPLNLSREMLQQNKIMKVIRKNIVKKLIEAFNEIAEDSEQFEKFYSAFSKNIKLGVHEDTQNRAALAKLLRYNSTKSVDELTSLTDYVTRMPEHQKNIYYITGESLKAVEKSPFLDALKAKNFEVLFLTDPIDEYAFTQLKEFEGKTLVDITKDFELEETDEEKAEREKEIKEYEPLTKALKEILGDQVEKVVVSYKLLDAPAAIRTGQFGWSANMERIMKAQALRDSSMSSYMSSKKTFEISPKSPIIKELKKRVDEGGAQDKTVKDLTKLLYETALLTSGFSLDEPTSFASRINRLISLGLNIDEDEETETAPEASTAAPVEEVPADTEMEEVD
Receptor tyrosine-protein kinase erbB-2, sequence (P04626 whole entry): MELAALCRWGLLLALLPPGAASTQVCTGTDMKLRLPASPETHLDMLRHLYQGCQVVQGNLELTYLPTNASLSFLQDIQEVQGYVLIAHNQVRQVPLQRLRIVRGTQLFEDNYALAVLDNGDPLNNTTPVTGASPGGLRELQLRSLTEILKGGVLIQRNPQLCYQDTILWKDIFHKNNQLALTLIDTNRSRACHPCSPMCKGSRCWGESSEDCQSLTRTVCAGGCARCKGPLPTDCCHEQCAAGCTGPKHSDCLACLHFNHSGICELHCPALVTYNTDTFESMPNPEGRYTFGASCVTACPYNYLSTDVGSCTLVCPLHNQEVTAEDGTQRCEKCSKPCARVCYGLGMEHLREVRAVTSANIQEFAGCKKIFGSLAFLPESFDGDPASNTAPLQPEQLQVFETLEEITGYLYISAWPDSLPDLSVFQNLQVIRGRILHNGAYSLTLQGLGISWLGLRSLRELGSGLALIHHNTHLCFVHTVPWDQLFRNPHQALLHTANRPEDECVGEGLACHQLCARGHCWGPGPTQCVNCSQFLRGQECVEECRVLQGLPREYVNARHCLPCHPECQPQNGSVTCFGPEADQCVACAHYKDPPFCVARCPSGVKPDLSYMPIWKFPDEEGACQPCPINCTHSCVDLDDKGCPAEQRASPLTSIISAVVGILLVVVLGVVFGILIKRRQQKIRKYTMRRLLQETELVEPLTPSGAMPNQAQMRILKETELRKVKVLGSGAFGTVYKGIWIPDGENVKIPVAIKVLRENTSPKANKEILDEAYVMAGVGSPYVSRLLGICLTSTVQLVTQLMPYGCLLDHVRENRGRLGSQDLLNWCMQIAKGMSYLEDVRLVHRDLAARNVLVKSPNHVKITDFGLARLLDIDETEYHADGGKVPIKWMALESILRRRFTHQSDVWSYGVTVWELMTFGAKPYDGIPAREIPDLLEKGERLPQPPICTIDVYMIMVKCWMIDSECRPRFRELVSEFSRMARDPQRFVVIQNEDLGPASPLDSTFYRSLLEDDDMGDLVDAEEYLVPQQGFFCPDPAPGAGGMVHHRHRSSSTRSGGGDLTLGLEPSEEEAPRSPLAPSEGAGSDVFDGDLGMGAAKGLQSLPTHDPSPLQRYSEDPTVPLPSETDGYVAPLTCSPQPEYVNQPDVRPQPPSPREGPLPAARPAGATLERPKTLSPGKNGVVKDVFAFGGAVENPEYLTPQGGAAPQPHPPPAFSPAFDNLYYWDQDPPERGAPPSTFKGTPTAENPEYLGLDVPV

Compound: Oc1cc(O)c(-c2noc3ccc(NCCN4CCOCC4)cc23)cc1Cl
- IC50 [1]: 30 nM

Compound: C[C@H]1CCCC(=O)CCCCCc2cc(O)cc(O)c2C(=O)O1 [ZEARALANONE]
- IC50 [2]: 90 nM

Compound: CCNC(=O)c1noc(-c2cc(Cl)c(O)cc2O)c1-c1ccc(OC)cc1
- inhibition in vivo at 100 mg/kg [3]: 30%

Compound: CO[C@H]1C[C@H](C)Cc2cc(O)cc(c2)NC(=O)/C=C/CC[C@H](OC)[C@@H](OC(N)=O)/C(C)=C/[C@H](C)[C@H]1O
- Kd [4]: 16 nM

Compound: C[C@@H]1C[C@H]2O[C@@H]2\C=C/C=C/C(=N\OC(=O)N2CCCCC2)Cc2c(Cl)c(O)cc(O)c2C(=O)O1
- IC50 [5]: 25 nM

Compound: C#CCCCn1c(Sc2cc3c(cc2Br)OCO3)nc2c(N)ncnc21
- EC50 [2]: 30 nM
- IC50 [6]: 300 nM

Compound: CC(C)NCCCn1c(Cc2cc3c(cc2I)OCO3)nc2c(N)nc(F)nc21
- EC50 [1]: 22 nM
- IC50 [6]: 90 nM

Compound: C#CCCCn1c(Cc2cc(OC)c(OC)c(OC)c2Cl)nc2c(N)nc(F)nc21
- Activity [7]: 72%

Compound: COC1=C2C[C@@H](C)C[C@H](OC)[C@H](O)[C@@H](C)/C=C(\C)[C@H](OC(N)=O)[C@@H](OC)/C=C\C=C(/C)C(=O)NC(=CC1=O)C2=O [GELDANAMYCIN]
- inhibition of growth at 0.013 µM [8]: 50%

Compound: Cc1[nH]nc(-c2cc(Cl)c(O)cc2O)c1-c1ccc2c(c1)OCCO2
- GI50 [9]: 4000 nM
- IC50 [10]: < 1000 nM

Compound: Cc1nc(-c2c(-c3ccc(O)cc3O)noc2C(F)(F)F)cs1
- IC50 [2]: 9000 nM

Compound: CS(=O)(=O)c1ccc(CN2CCN(c3cn[nH]c3-c3cc(Cl)c(O)cc3O)CC2)cc1
- IC50 [1]: 740 nM
- GI50 [9]: 3100 nM

Compound: C[C@H]1C[C@H]2O[C@@H]2CC/C=C/C(=O)Cc2c(Cl)c(O)cc(O)c2C(=O)O1 [POCHONIN A]
- IC50 [2]: 90 nM

Compound: C[C@@H]1C/C=C/CC/C=C/C(=O)Cc2c(Cl)c(O)cc(O)c2C(=O)O1 [POCHONIN D]
- IC50 [2]: 80 nM

Compound: CCNC(=O)c1noc(-c2cc(C(C)C)c(O)cc2O)c1-c1ccc(CN2CCOCC2)cc1 [LUMINESPIB]
- inhibition in vivo at 50 mg/kg [11]: 50%

Compound: COc1c(C)ncc(Cn2cnc3c(Cl)nc(N)nc32)c1C
- inhibition in vivo at 125 mg/kg [12]: 87%
- inhibition in vivo at 60 mg/kg [13]: 83%
- IC50 [14]: 20 nM

Compound: CCc1cc(-c2[nH]nc(C)c2-c2ccc3c(c2)OCCO3)c(O)cc1O
- GI50 [9]: 4100 nM

Compound: C[C@@H]1C[C@H]2C[C@@H]2/C=C\C=C\C(=O)Cc2c(Cl)c(O)cc(O)c2C(=O)O1 [CYCLOPROPARADICICOL]
- ED50 [2]: 160 nM
- IC50 [15]: 43 nM

Compound: C=CCNC1=C2C[C@@H](C)C[C@H](OC)[C@H](O)[C@@H](C)/C=C(\C)[C@H](OC(N)=O)[C@@H](OC)/C=C\C=C(/C)C(=O)NC(=CC1=O)C2=O [TANESPIMYCIN]
- IC50 [16]: 31 nM
- solubility [17]: 50 µg/mL (≈ 0.0854 mM)

Compound: CCNC(=O)c1noc(-c2cc(C(C)C)c(O)cc2O)c1-c1ccc(CN(CC)CC)cc1
- GI50 [9]: 6 nM

Compound: Cc1cc(C#Cc2ccccc2/C=N/N2CCOC2=O)nc(N)n1
- Ki [1]: 4000 nM

Compound: C=CCNc1c(O)cc2c(O)c1C[C@@H](C)C[C@H](OC)[C@H](O)[C@@H](C)/C=C(\C)[C@H](OC(N)=O)[C@@H](OC)/C=C\C=C(/C)C(=O)N2.Cl [RETASPIMYCIN HYDROCHLORIDE]
- solubility [17]: > 250000 µg/mL

Compound: CC(C)(C)CNCCn1c(Sc2nc3cccc(Cl)c3s2)nc2c(N)ncnc21
- IC50 [18]: 35 nM

Compound: C[C@@H]1C[C@H]2O[C@@H]2/C=C\C=C\C(=O)Cc2c(Cl)c(O)cc(O)c2C(=O)O1 [RADICICOL]
- IC50 [15]: 23 nM

Compound: O=S(=O)(Nc1ccc(O)c(-c2c(O)ccc3ccccc23)c1)c1cc(Cl)ccc1Cl
- GI50 [9]: 29000 nM

Compound: COc1ccc(I)c(Sc2nc3c(N)ncnc3n2CCNCC(C)(C)C)c1
- solubility [17]: > 10000 µg/mL
- inhibition in vivo at 200 mg/kg [19]: 70%

Compound: COc1ccc(I)c(Sc2nc3c(N)ncnc3n2CCCNC(C)(C)C)c1
- solubility [17]: > 10000 µg/mL

Compound: CCCCn1c(Sc2nc3cccc(Cl)c3s2)nc2c(N)ncnc21
- IC50 [18]: 180 nM

Compound: Oc1cc(O)c(-c2n[nH]cc2N2CCN(Cc3ccccc3)CC2)cc1Cl
- GI50 [9]: 6500 nM

Compound: Nc1ncnc2c1nc(Sc1nc3cccc(Cl)c3s1)n2CCNC1CC1
- IC50 [18]: 110 nM
